Experimental data as given in ChEMBL document CHEMBL1129716, “Indolizidine derivatives as potential substance P antagonists” (Bioorg Med Chem Lett, 1996).

Molecular target: Substance-P receptor (Homo sapiens, UniProt P25103)
Experiment: Binding affinity was carried out with NK 1 receptors from U-373MG human astrocytoma cell line
Assay type: cell-based
Details: u-373mg atcc

Sequence of Substance-P receptor (P25103 whole entry): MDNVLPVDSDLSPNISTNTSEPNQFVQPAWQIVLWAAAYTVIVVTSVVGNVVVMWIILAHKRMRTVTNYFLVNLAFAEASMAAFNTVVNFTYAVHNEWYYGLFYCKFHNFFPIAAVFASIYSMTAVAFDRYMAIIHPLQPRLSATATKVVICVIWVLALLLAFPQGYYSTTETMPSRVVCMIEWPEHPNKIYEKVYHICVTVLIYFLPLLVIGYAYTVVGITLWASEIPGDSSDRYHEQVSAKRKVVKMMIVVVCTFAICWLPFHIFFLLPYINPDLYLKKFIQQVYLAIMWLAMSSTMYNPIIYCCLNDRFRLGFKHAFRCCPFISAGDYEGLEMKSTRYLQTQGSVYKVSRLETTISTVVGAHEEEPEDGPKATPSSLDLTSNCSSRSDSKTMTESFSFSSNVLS

Log Ki	Structure (SMILES)
< -7	C=C1CN2CCC[C@H](NCc3ccccc3OC)[C@@]2(c2ccccc2)C1
< -7	COc1ccccc1CN[C@H]1CCCN2CCC[C@]12c1ccccc1
